From ChEMBL document CHEMBL1828496 (Eur J Med Chem, 2011)

Key:
[1] = target: T1, Amine oxidase [flavin-containing] A (Homo sapiens, UniProt P21397); assay: Inhibition of human recombinant MAO-A expressed in baculovirus infected BTI-TN-5B1-4 cells assessed as production of hydrogen peroxide from p-tyramine at 100 uM after 15 mins by microplate fluorescence assay; conditions: for inhibition (INH): human, bti-tn-5b1-4, 0.25 h, 100 µM; for inhibition at 100 µM: BTI-TN-5B1-4, human, 0.25 h
T1 sequence (P21397 whole entry): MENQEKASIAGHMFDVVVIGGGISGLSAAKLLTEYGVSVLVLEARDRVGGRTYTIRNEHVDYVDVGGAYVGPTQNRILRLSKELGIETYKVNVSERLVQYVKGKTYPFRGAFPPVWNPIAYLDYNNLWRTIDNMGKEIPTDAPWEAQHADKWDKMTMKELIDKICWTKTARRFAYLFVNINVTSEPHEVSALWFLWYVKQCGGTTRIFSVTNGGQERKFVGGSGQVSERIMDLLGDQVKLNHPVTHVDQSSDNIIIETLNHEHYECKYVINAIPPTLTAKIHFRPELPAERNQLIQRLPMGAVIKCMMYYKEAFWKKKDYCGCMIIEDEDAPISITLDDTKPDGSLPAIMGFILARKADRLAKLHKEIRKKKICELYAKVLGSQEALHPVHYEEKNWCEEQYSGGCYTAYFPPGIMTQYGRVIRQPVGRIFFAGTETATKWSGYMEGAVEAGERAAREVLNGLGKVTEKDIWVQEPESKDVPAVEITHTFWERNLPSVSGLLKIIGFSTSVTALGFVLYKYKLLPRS

[2] = target: T2, Amine oxidase [flavin-containing] B (Homo sapiens, UniProt P27338); assay: Inhibition of human recombinant MAO-B expressed in baculovirus infected BTI-TN-5B1-4 cells assessed as production of hydrogen peroxide from p-tyramine at 100 uM after 15 mins by microplate fluorescence assay; conditions: for inhibition (INH): human, bti-tn-5b1-4, 0.25 h, 100 µM; for inhibition at 100 µM: BTI-TN-5B1-4, human, 0.25 h
T2 sequence (P27338 whole entry): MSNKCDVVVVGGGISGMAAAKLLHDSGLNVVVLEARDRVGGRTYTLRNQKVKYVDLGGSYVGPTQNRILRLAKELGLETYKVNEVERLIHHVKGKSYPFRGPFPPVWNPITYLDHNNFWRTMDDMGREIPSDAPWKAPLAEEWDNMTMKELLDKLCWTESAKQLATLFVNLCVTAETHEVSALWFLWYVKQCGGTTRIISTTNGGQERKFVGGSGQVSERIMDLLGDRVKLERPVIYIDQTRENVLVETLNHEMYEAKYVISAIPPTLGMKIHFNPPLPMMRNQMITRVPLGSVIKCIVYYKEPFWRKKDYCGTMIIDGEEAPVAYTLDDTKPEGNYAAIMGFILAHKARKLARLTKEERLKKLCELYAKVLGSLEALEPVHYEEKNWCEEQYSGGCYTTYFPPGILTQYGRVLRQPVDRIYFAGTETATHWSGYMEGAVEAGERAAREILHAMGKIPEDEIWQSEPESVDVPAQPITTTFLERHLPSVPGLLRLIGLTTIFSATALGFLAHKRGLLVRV

[3] = target: T2, Amine oxidase [flavin-containing] B; assay: biochemical; assay type: cell-based, BTI-TN-5B1-4
Description: Inhibition of human recombinant MAO-B expressed in baculovirus infected BTI-TN-5B1-4 cells assessed as production of hydrogen peroxide from p-tyramine after 15 mins by microplate fluorescence assay

Homo sapiens = organism: Homo sapiens; assay: Selectivity ratio of IC50 for human recombinant MAO-A to IC50 for human recombinant MAO-B
[4] = target: T1, Amine oxidase [flavin-containing] A; assay: Inhibition of human recombinant MAO-A expressed in baculovirus infected BTI-TN-5B1-4 cells assessed as production of hydrogen peroxide from p-tyramine after 15 mins by microplate fluorescence assay
[5] = Hydrolytic stability of the compound in acetonitrile after 1 to 24 hrs by NMR spectroscopic analysis; assay type: physicochemical
[6] = Hydrolytic stability of the compound in phosphate buffer at pH 7.4 after 1 to 24 hrs by NMR spectroscopic analysis; assay type: physicochemical
[7] = Hydrolytic stability of the compound in dimethyl sulfoxide after 1 to 24 hrs by NMR spectroscopic analysis; assay type: physicochemical
[8] = Hydrolytic stability of the compound in water after 1 to 24 hrs by NMR spectroscopic analysis; assay type: physicochemical

O=C(O)c1cc2cc(Cl)cc(Br)c2oc1=O
inhibition (INH) [1]: Not Active
inhibition (INH) [2]: Not Active

O=C(c1ccccc1)c1cc2cc(Br)ccc2oc1=O
inhibition (INH) [1]: Not Active
inhibition (INH) [2]: Not Active

O=C(O)c1cc2ccc(OC3CCCCCC3)cc2oc1=O
IC50 [3]: 8.62 µM
Ratio IC50 (Homo sapiens): > 11.6
inhibition (INH) [1]: Not Active

O=C(NNc1ccccc1[N+](=O)[O-])c1cc2ccccc2oc1=O
Ratio IC50 (Homo sapiens): < 0.39
IC50 [4]: 39.6 µM
inhibition (INH) [2]: Not Active

COc1ccc2cc(C(C)=O)c(=O)oc2c1
IC50 [3]: 15.4 µM
Ratio IC50 (Homo sapiens): > 6.5
inhibition at 100 µM [1]: 40%

CC(=O)c1cc2cc(C)ccc2oc1=O
inhibition (INH) [1]: Not Active
inhibition at 100 µM [2]: 40%

O=C(c1ccccc1)c1cc2cc(Cl)ccc2oc1=O
inhibition (INH) [1]: Not Active
inhibition (INH) [2]: Not Active

O=C(c1ccccc1)c1cc2c(ccc3ccccc32)oc1=O
inhibition (INH) [1]: Not Active
inhibition (INH) [2]: Not Active

COc1ccc2oc(=O)c(C(=O)O)cc2c1
inhibition (INH) [1]: Not Active
inhibition (INH) [2]: Not Active

CCOC(=O)c1cc2cc(O)ccc2oc1=O
IC50 [3]: 10.1 µM
Ratio IC50 (Homo sapiens): 4.9
IC50 [4]: 49.1 µM

COc1ccc2cc(C(=O)O)c(=O)oc2c1
inhibition (INH) [1]: Not Active
inhibition at 100 µM [2]: 40%

O=C(c1ccccc1)c1cc2cc(I)cc(I)c2oc1=O
inhibition (INH) [1]: Not Active
inhibition (INH) [2]: Not Active

O=C(O)c1cc2cccc(O)c2oc1=O
Ratio IC50 (Homo sapiens): < 0.6
IC50 [4]: 59.6 µM
inhibition at 100 µM [2]: 40%

CCOC(=O)c1cc2ccc(OCc3ccc(Cl)c(Cl)c3)cc2oc1=O
Stability [5]: Stable
Stability [6]: Stable
IC50 [3]: 0.00947 µM
Stability [7]: Stable
Ratio IC50 (Homo sapiens): > 10600
inhibition (INH) [1]: Not Active
Stability [8]: Stable

CCOC(=O)c1cc2ccc(OCc3ccccc3)cc2oc1=O
Stability [5]: Stable
Stability [6]: Stable
IC50 [3]: 0.00701 µM
Stability [7]: Stable
Ratio IC50 (Homo sapiens): > 14300
inhibition (INH) [1]: Not Active
Stability [8]: Stable

CCOC(=O)c1cc2ccc(OC)cc2oc1=O
IC50 [3]: 23.5 µM
Ratio IC50 (Homo sapiens): > 4.3
inhibition at 100 µM [1]: 40%

CC(=O)c1cc2ccccc2oc1=O [3-ACETYLCOUMARIN]
IC50 [3]: 14.5 µM
Ratio IC50 (Homo sapiens): > 6.9
inhibition (INH) [1]: Not Active

CCOC(=O)c1cc2ccc(N(CC)CC)cc2oc1=O
IC50 [3]: 45.5 µM
Ratio IC50 (Homo sapiens): > 2.2
inhibition (INH) [1]: Not Active

CCOC(=O)c1cc2ccc(O)cc2oc1=O
inhibition (INH) [1]: Not Active
inhibition (INH) [2]: Not Active

CCN(CC)c1ccc2cc(C(C)=O)c(=O)oc2c1
IC50 [3]: 18.1 µM
Ratio IC50 (Homo sapiens): > 5.5
inhibition (INH) [1]: Not Active

CCN(CC)c1ccc2cc(C(=O)c3ccccc3)c(=O)oc2c1
IC50 [3]: 23.8 µM
Ratio IC50 (Homo sapiens): > 4.2
inhibition (INH) [1]: Not Active

CCOC(=O)c1cc2ccc(OCc3cccc(Cl)c3)cc2oc1=O
Stability [5]: Stable
Stability [6]: Stable
IC50 [3]: 0.0612 µM
Stability [7]: Stable
Ratio IC50 (Homo sapiens): > 1630
inhibition (INH) [1]: Not Active
Stability [8]: Stable

CC(=O)c1cc2cc(I)cc(I)c2oc1=O
inhibition (INH) [1]: Not Active
inhibition (INH) [2]: Not Active

Cc1ccc(NNC(=O)c2cc3ccccc3oc2=O)cc1
Ratio IC50 (Homo sapiens): < 0.58
IC50 [4]: 58.4 µM
inhibition (INH) [2]: Not Active

NNC(=O)c1cc2ccccc2oc1=O
Stability [5]: Stable
Stability [6]: Stable
IC50 [3]: 0.00322 µM
Stability [7]: Stable
Ratio IC50 (Homo sapiens): > 31100
inhibition (INH) [1]: Not Active
Stability [8]: Stable

O=C(c1ccccc1)c1cc2cc(O)ccc2oc1=O
IC50 [3]: 18 µM
Ratio IC50 (Homo sapiens): 2.9
IC50 [4]: 51.7 µM

CC(=O)c1cc2cc(Cl)ccc2oc1=O
IC50 [3]: 17.7 µM
Ratio IC50 (Homo sapiens): > 5.6
inhibition (INH) [1]: Not Active

CCOC(=O)c1cc2ccc(OCc3ccc(C(C)(C)C)cc3)cc2oc1=O
Stability [5]: Stable
Stability [6]: Stable
IC50 [3]: 3.75 µM
Stability [7]: Stable
Ratio IC50 (Homo sapiens): > 27
inhibition (INH) [1]: Not Active
Stability [8]: Stable

O=C(O)c1cc2cc(O)ccc2oc1=O
Ratio IC50 (Homo sapiens): < 0.4
IC50 [4]: 40.2 µM
inhibition at 100 µM [2]: 40%

CC(=O)c1cc2cc(Br)cc(Br)c2oc1=O
IC50 [3]: 0.2 µM
Ratio IC50 (Homo sapiens): > 500
inhibition (INH) [1]: Not Active

CC(=O)c1cc2cccc(O)c2oc1=O
IC50 [3]: 42.1 µM
Ratio IC50 (Homo sapiens): 0.93
IC50 [4]: 39.4 µM

CCOC(=O)c1cc2cc(Cl)cc(Br)c2oc1=O
IC50 [3]: 17.5 µM
Ratio IC50 (Homo sapiens): > 5.7
inhibition (INH) [1]: Not Active

CC(=O)c1cc2c(ccc3ccccc32)oc1=O
IC50 [3]: 2.01 µM
Ratio IC50 (Homo sapiens): > 50
inhibition at 100 µM [1]: 40%

O=C(O)c1cc2ccc(OCc3ccc(Cl)c(Cl)c3)cc2oc1=O
IC50 [3]: 0.41 µM
Ratio IC50 (Homo sapiens): > 244
inhibition (INH) [1]: Not Active

O=C(NNc1ccc(Cl)cc1)c1cc2ccccc2oc1=O
IC50 [3]: 1.19 µM
Ratio IC50 (Homo sapiens): 40.4
IC50 [4]: 48 µM

CC(=O)c1cc2cc(Cl)cc(Br)c2oc1=O
IC50 [3]: 0.14 µM
Ratio IC50 (Homo sapiens): 394
IC50 [4]: 55.2 µM

COc1ccc2cc(C(=O)c3ccccc3)c(=O)oc2c1
inhibition (INH) [1]: Not Active
inhibition at 100 µM [2]: 40%

O=C(c1ccccc1)c1cc2cc(Cl)cc(Br)c2oc1=O
inhibition (INH) [1]: Not Active
inhibition at 100 µM [2]: 40%

CCOC(=O)c1cc2cccc(O)c2oc1=O
IC50 [3]: 14.8 µM
Ratio IC50 (Homo sapiens): 2.7
IC50 [4]: 40.5 µM

O=C(c1ccccc1)c1cc2ccccc2oc1=O
inhibition (INH) [1]: Not Active
inhibition (INH) [2]: Not Active

O=C(c1ccccc1)c1cc2cc(Br)cc(Br)c2oc1=O
inhibition (INH) [1]: Not Active
inhibition at 100 µM [2]: 40%

O=C(O)c1cc2ccc(OCc3cccc(Cl)c3)cc2oc1=O
IC50 [3]: 1.8 µM
Ratio IC50 (Homo sapiens): > 55
inhibition (INH) [1]: Not Active

O=C(NNc1ccc([N+](=O)[O-])cc1[N+](=O)[O-])c1cc2ccccc2oc1=O
IC50 [3]: 56.1 µM
Ratio IC50 (Homo sapiens): 1.08
IC50 [4]: 60.5 µM

O=C(c1ccccc1)c1cc2cccc(O)c2oc1=O
IC50 [3]: 27.1 µM
Ratio IC50 (Homo sapiens): 1.5
IC50 [4]: 40.5 µM

CCOC(=O)c1cc2cc(Br)cc(Br)c2oc1=O
inhibition (INH) [1]: Not Active
inhibition at 100 µM [2]: 40%

O=C(O)c1cc2cc(I)cc(I)c2oc1=O
IC50 [3]: 17.8 µM
Ratio IC50 (Homo sapiens): > 5.6
inhibition (INH) [1]: Not Active

CC(=O)c1cc2ccc(O)cc2oc1=O
inhibition (INH) [1]: Not Active
inhibition (INH) [2]: Not Active

CC(=O)c1cc2cc(Br)ccc2oc1=O
Ratio IC50 (Homo sapiens): < 0.52
IC50 [4]: 51.6 µM
inhibition at 100 µM [2]: 40%

Cc1ccc2oc(=O)c(C(=O)c3ccccc3)cc2c1
inhibition (INH) [1]: Not Active
inhibition at 100 µM [2]: 40%

CC(C)(C)c1ccc(COc2ccc3cc(C(=O)O)c(=O)oc3c2)cc1
inhibition (INH) [1]: Not Active
inhibition (INH) [2]: Not Active

O=C(c1ccccc1)c1cc2ccc(O)cc2oc1=O
inhibition (INH) [1]: Not Active
inhibition (INH) [2]: Not Active

CC(=O)c1cc2cc(O)ccc2oc1=O
IC50 [3]: 64.2 µM
Ratio IC50 (Homo sapiens): > 1.6
inhibition at 100 µM [1]: 40%

CCOC(=O)c1cc2cc(OC)ccc2oc1=O
Stability [5]: Stable
Stability [6]: Stable
IC50 [3]: 21.6 µM
Stability [7]: Stable
Ratio IC50 (Homo sapiens): > 4.6
inhibition (INH) [1]: Not Active
Stability [8]: Stable

O=C(O)c1cc2cc(Br)cc(Br)c2oc1=O
inhibition (INH) [1]: Not Active
inhibition (INH) [2]: Not Active
